Reference: PMC6134108, “Nystatin-like Pseudonocardia polyene B1, a novel disaccharide-containing antifungal heptaene antibiotic” (Scientific Reports, 2018)

What was measured:
[1] = 7-day repeated intravenous dose toxicity; format: in vivo, mice; details: both sexes, ICR, mouse, in vivo; mice, 7-day repeated intravenous doses; read-out: MTD, maximal tolerated dose
Protocol: (§1) All in vivo mouse toxicity studies were conducted according to Testing Guidelines for Safety Evaluation of Drugs[32] and the Organisation for Economic Co-operation and Development (OECD) Guideline[33]. Male and female ICR mice were used 7 weeks old for the toxicity test. […]

ICR mice = assay: 7-day repeated intravenous dose toxicity; format: in vivo
Protocol: as §1

[2] = system: cholesterol-containing membranes; assay: Preliminary SPR experiments; format: binding; details: unpublished data
HepG2 cells = assay: In vitro hepatotoxicity (MTS cell proliferation assay); format: cell-based, human
Protocol: (§2) For the minimum inhibitory concentration (MIC) assay, strains for testing were grown on YPD agar for 24 hours, and subcultured to YPD broth medium. Whole strains were incubated for 18 hours at 35 °C by shaking incubator. Grown organisms were diluted with fresh RPMI 1640 medium to appropriate concentration, 5 × 10^4 CFU/ml. Cultures were inoculated to 96-well plates containing antifungal medium. All compounds were dissolved using Dimethyl Sulfoxide (DMSO) and diluted broth media. Fungal diluted solution and antifungal medium were mixed at 1:1 ratio so total 200 ul mixed medium was made. Whole experiment plates were incubated for 24 hours at 37 °C. […] The MICs were calculated in duplicate using the Clinical and Laboratory Standards Institute M27-A3 microbroth methodology. Hemolysis experiments and the 3-(4,5-dimethylthiazol-2-yl)-5-(3-carboxymethoxyphenyl)-2-(4-sulfophenyl)-2H-tetrazolium (MTS) cell proliferation colorimetric assay were performed following known procedures[12],[27],[29].

Hep3B cells = assay: as above; format: cell-based, human
Protocol: as §2

C. albicans = assay: In vitro antifungal activity against four different C. albicans strains (comparison); format: cell-based, Candida albicans
Protocol: as §2

[3] = female, repeated iv 1.5mg/kg, day 0
[4] = female, repeated iv 1.5mg/kg, day 1
[5] = female, repeated iv 1.5mg/kg, day 2
[6] = female, repeated iv 1.5mg/kg, day 3
[7] = female, repeated iv 1.5mg/kg, day 4
[8] = female, repeated iv 1.5mg/kg, day 5
[9] = female, repeated iv 1.5mg/kg, day 6
[10] = female, repeated iv 1.5mg/kg, day 7
[11] = male, repeated iv 1.5mg/kg, day 0
[12] = male, repeated iv 1.5mg/kg, day 1
[13] = male, repeated iv 1.5mg/kg, day 2
[14] = male, repeated iv 1.5mg/kg, day 3
[15] = male, repeated iv 1.5mg/kg, day 4
[16] = male, repeated iv 1.5mg/kg, day 5
[17] = male, repeated iv 1.5mg/kg, day 6

Row | Structure (SMILES) | MTD at 7 days [1] [mg/kg] | Deaths on day after start of treatment (ICR mice; [3]) | Deaths on day after start of treatment (ICR mice; [4]) | Deaths on day after start of treatment (ICR mice; [5]) | Deaths on day after start of treatment (ICR mice; [6]) | Deaths on day after start of treatment (ICR mice; [7]) | Deaths on day after start of treatment (ICR mice; [8]) | Deaths on day after start of treatment (ICR mice; [9]) | Deaths on day after start of treatment (ICR mice; [10]) | Deaths on day after start of treatment (ICR mice; [11]) | Deaths on day after start of treatment (ICR mice; [12]) | Deaths on day after start of treatment (ICR mice; [13]) | Deaths on day after start of treatment (ICR mice; [14]) | Deaths on day after start of treatment (ICR mice; [15]) | Deaths on day after start of treatment (ICR mice; [16]) | Deaths on day after start of treatment (ICR mice; [17]) | also measured
1 | C[C@@H]1[C@H](O)[C@@H](C)/C=C/C=C/C=C/C=C/C=C/C=C/C=C/[C@H](O[C@@H]2O[C@H](C)[C@@H](O)[C@H](N)[C@@H]2O)C[C@@H]2O[C@](O)(C[C@@H](O)C[C@@H](O)[C@H](O)CC[C@@H](O)C[C@@H](O)CC(=O)O[C@H]1C)C[C@H](O)[C@H]2C(=O)O [Amphotericin B, amphotericin B] | 1.5 | 0 | 0 | 0 | 0 | 0 | 0 | 0 | 0 | 0 | 0 | 0 | 0 | 0 | 0 | 1 | Deaths on day after start of treatment (ICR mice; female, repeated iv 0.5mg/kg, day 0): 0; Deaths on day after start of treatment (ICR mice; female, repeated iv 0.5mg/kg, day 1): 0; Deaths on day after start of treatment (ICR mice; female, repeated iv 0.5mg/kg, day 2): 0; Deaths on day after start of treatment (ICR mice; female, repeated iv 0.5mg/kg, day 3): 0; Deaths on day after start of treatment (ICR mice; female, repeated iv 0.5mg/kg, day 4): 0; Deaths on day after start of treatment (ICR mice; female, repeated iv 0.5mg/kg, day 5): 0; Deaths on day after start of treatment (ICR mice; female, repeated iv 0.5mg/kg, day 6): 0; Deaths on day after start of treatment (ICR mice; female, repeated iv 0.5mg/kg, day 7): 0; Deaths on day after start of treatment (ICR mice; male, repeated iv 0.5mg/kg, day 0): 0; Deaths on day after start of treatment (ICR mice; male, repeated iv 0.5mg/kg, day 1): 0; Deaths on day after start of treatment (ICR mice; male, repeated iv 0.5mg/kg, day 2): 0; Deaths on day after start of treatment (ICR mice; male, repeated iv 0.5mg/kg, day 3): 0; Deaths on day after start of treatment (ICR mice; male, repeated iv 0.5mg/kg, day 4): 0; Deaths on day after start of treatment (ICR mice; male, repeated iv 0.5mg/kg, day 5): 0; Deaths on day after start of treatment (ICR mice; male, repeated iv 0.5mg/kg, day 6): 0; affinity compared with NPP B1 [2]: higher affinity
2 | CC(=O)NC1C(OC2C(C)OC(OC3C=CC=CC=CC=CC=CC=CC=CC(C)C(O)C(C)C(C)OC(=O)CC(O)CC(O)CC(O)CCC(O)C(O)CC4(O)CC(O)C(C(=O)O)C(C3)O4)C(O)C2N)OC(CO)C(O)C1O (stereo not drawn) [NPP B1, Nystatin-like Pseudonocardia polyene B1] | > 1.5 | 0 | 0 | 0 | 0 | 0 | 0 | 0 | 0 | 0 | 0 | 0 | 0 | 0 | 0 | 0 | in vitro hepatotoxicity compared with AmB (HepG2 cells): not improved; in vitro hepatotoxicity compared with AmB (Hep3B cells): not improved; antifungal activity, fold lower than amphotericin B (C. albicans): 2 fold
